Results on 2 molecules are retold here after ChEMBL document CHEMBL1130747, “Synthesis of novel cyclic protease inhibitors using Grubbs olefin metathesis” (Bioorg Med Chem Lett, 1998).

For orientation: Ki means a dissociation constant, usually derived from enzyme kinetics or from competition with a known ligand. Low values mean a stronger hold on the target, high ones a looser hold on the target.

In this assay the target is T1, Rhizopuspepsin (Rhizopus microsporus var. chinensis, UniProt P06026).
T1 sequence (P06026 whole entry): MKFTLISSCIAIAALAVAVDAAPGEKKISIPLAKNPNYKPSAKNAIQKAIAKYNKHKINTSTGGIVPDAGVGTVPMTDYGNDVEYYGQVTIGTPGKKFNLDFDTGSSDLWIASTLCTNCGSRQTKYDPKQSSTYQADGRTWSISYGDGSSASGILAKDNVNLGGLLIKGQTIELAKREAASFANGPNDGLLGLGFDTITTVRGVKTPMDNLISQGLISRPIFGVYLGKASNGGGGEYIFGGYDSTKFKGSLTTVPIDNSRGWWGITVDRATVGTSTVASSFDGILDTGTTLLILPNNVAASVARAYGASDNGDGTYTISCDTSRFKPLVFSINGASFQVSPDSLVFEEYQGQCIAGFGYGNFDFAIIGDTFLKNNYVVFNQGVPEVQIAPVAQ
The experiment in a line: Inhibition of Rhizopus chinensis pepsin using fluorescence assay.

Take `CC(C)[C@H]1NC(=O)[C@H](NC(=O)OC(C)(C)C)CCCCCCCC[C@H](CO)NC1=O`: the Ki worked out at 1.31 nM.
`CC(C)[C@H]1NC(=O)[C@H](NC(=O)OC(C)(C)C)CCC/C=C\CCC[C@H](CO)NC1=O` had an inhibition constant (Ki) of 336 nM.
